In ChEMBL document CHEMBL5241104, “Reactive metabolites of the anticonvulsant drugs and approaches to minimize the adverse drug reaction” (Eur J Med Chem, 2021):
Values belong to the molecule of their own block, whether it stands above or below them.

Columns and labels:
[1] = Toxicity in Swiss albino mouse assessed as median toxicity dose at ip administration; type: organism-based; conditions: in vivo
Mus musculus [2] = assay: Anticonvulsant activity in Swiss albino mouse assessed as protection against PTZ induced seizure at ip administration for 30 mins; type: functional; conditions: 0.5 h
Mus musculus [3] = assay: Anticonvulsant activity in CD-1 mouse assessed as protection against 6-Hz Psychomotor induced seizure at ip administration; type: functional
Rattus norvegicus [4] = assay: Anticonvulsant activity in Wistar rat assessed as protection against maximal electroshock induced seizure at po administration for 60 mins; type: functional; conditions: 1 h
Rattus norvegicus [5] = assay: Anticonvulsant activity against maximal electroshock induced seizure in Wistar rat assessed as reduction of time spent in extension phase at 50 mg/kg,po administration; type: functional
Mus musculus [6] = assay: Anticonvulsant activity in mouse assessed as protection against Sc-pTZ induced seizure at ip administration for 5 mins; type: functional
[7] = Protective index, ratio of TD50 for toxicity in Albino mouse assessed as median neurotoxicity dose at ip administration by rotorod test to ED50 for anticonvulsant activity in Albino mouse assessed as protection against maximal electroshock induced seizure at ip administration; type: organism-based; conditions: in vivo, read-out: Ratio TD50/ED50
Mus musculus [8] = assay: Anticonvulsant activity in Albino mouse assessed as protection against Sc-PTZ induced seizure at ip administration; type: functional
Mus musculus [9] = assay: Anticonvulsant activity in Albino mouse assessed as protection against maximal electroshock induced seizure at ip administration; type: functional
Mus musculus [10] = assay: Anticonvulsant activity in Albino mouse brain assessed as increase in GABA level at 30 to 300 mg/kg,ip by spectrophotometric method; type: functional; conditions: dose 30-300 mg/kg
[11] = Protective index, ratio of TD50 for toxicity in Albino mouse assessed as median neurotoxicity dose at ip administration by rotorod test to ED50 for anticonvulsant activity in Albino mouse assessed as protection against Sc-PTZ induced seizure at ip administration; type: organism-based; conditions: in vivo, read-out: Ratio TD50/ED50
Rattus norvegicus [12] = species: Rattus norvegicus; assay: Inhibition of sodium uptake in rat cerebral cortical synaptosomes at 300 uM incubated for 30 mins by scintillation counting analysis; type: functional; conditions: Cerebral cortex, Synaptosome
[13] = Protective index, ratio of TD50 for toxicity in Wistar rat assessed as median toxicity dose at po administration by rotorod test to ED50 for anticonvulsant activity in Wistar rat assessed as protection against maximal electroshock induced seizure at po administration; type: organism-based; conditions: in vivo, read-out: Ratio TD50/ED50
Rattus norvegicus [14] = assay: Anticonvulsant activity in Wistar rat assessed as protection against maximal electroshock induced seizure at po administration; type: functional
Rattus norvegicus [15] = species: Rattus norvegicus; assay: Inhibition of sodium uptake in rat cerebral cortical synaptosomes at 100 uM incubated for 30 mins by scintillation counting analysis; type: functional; conditions: Cerebral cortex, Synaptosome
Rattus norvegicus [16] = species: Rattus norvegicus; assay: Inhibition of sodium uptake in rat cerebral cortical synaptosomes at 30 uM incubated for 30 mins by scintillation counting analysis; type: functional; conditions: Cerebral cortex, Synaptosome
[17] = Displacement of 3[H]BTX from rat cerebral cortical synaptosomes voltage-sensitive sodium channel incubated for 1.5 hrs by scintillation counting analysis; type: subcellular, Cerebral cortex, Synaptosome
Rattus norvegicus [18] = assay: Anticonvulsant activity in Wistar rat assessed as protection against maximal electroshock induced seizure by measuring median effective dose at po administration; type: functional
[19] = Toxicity in CF-1 mouse assessed as median toxic dose at ip administrated upto 4 hrs; type: organism-based; conditions: in vivo
[20] = Protective index, ratio of TD50 for toxicity in CF-1 mouse assessed as median toxicity dose at ip administration upto 4 hrs by rotorod test to ED50 for anticonvulsant activity in CF-1 mouse assessed as protection against maximal electroshock induced seizure at ip administration upto 4 hrs; type: organism-based; conditions: in vivo, read-out: Ratio TD50/ED50
Mus musculus [21] = assay: Anticonvulsant activity against 3-MP induced Swiss mouse seizure model assessed as inhibition of tonic seizures at 50 mg/kg,ip administration for 30 mins; type: functional; conditions: 0.5 h
Mus musculus [22] = assay: Anticonvulsant activity against bicuculline induced Swiss mouse seizure model assessed as inhibition of tonic seizures at 50 mg/kg,ip administration for 30 mins; type: functional; conditions: 0.5 h
Mus musculus [23] = assay: Anticonvulsant activity against bicuculline induced Swiss mouse seizure model assessed as inhibition of clonic seizures at 50 mg/kg,ip administration for 30 mins; type: functional; conditions: 0.5 h
Mus musculus [24] = assay: Anticonvulsant activity in Swiss mouse assessed as protection against Sc-PTZ induced seizure at ip administration; type: functional
[25] = Neurotoxicity in Swiss mouse assessed as median toxicity dose at ip administration by rotorod test; type: organism-based; conditions: in vivo
Mus musculus [26] = assay: Anticonvulsant activity against 3-MP induced Swiss mouse seizure model assessed as inhibition of clonic seizures at 50 mg/kg,ip administration for 30 mins; type: functional; conditions: 0.5 h
[27] = Toxicity in bicuculline induced Swiss mouse seizure model assessed as death at 50 mg/kg,ip administration for 30 mins; type: organism-based; conditions: in vivo, read-out: Activity
[28] = Toxicity in 3-MP induced Swiss mouse seizure model assessed as death at 50 mg/kg,ip administration for 30 mins; type: organism-based; conditions: in vivo, read-out: Activity
Mus musculus [29] = assay: Anticonvulsant activity in CD-1 mouse assessed as recovery time against maximal electroshock induced seizure at 300 mg/kg,po administrated for 30 mins; type: functional; conditions: 0.5 h
[30] = Neurotoxicity in CD-1 mouse assessed as reduction in locomotor activity at 300 mg/kg,po administrated for 30 mins; type: toxicity, organism-based; design: scale not given: the % may be the effect or the level left; conditions: in vivo, 0.5 h
Mus musculus [31] = assay: Anticonvulsant activity in CD-1 mouse assessed as protection against PTZ induced seizure at po administration for 30 mins; type: functional; conditions: CD-1, 0.5 h
Mus musculus [32] = assay: Anticonvulsant activity in CD-1 mouse assessed as protection against maximal electroshock induced seizure at po administration for 30 mins; type: functional; conditions: CD-1, 0.5 h
Mus musculus [33] = assay: Anticonvulsant activity in CD-1 mouse assessed as recovery time against maximal electroshock induced seizure at 150 mg/kg,po administrated for 30 mins; type: functional; conditions: 0.5 h
[34] = Neurotoxicity in CD-1 mouse assessed as reduction in locomotor activity at 600 mg/kg,po administrated for 30 mins; type: toxicity, organism-based; design: scale not given: the % may be the effect or the level left; conditions: in vivo, 0.5 h
[35] = Neurotoxicity in CD-1 mouse assessed as lethal dose at po administration for 30 mins; type: toxicity, organism-based; conditions: in vivo
Mus musculus [36] = assay: Anticonvulsant activity in CD-1 mouse assessed as recovery time against maximal electroshock induced seizure at 600 mg/kg,po administrated for 30 mins; type: functional; conditions: 0.5 h
Mus musculus [37] = assay: Anticonvulsant activity in Albino mouse assessed as protection against maximal electroshock induced seizure at ip administration for 30 mins; type: functional; conditions: 0.5 h
Rattus norvegicus [38] = assay: Anticonvulsant activity in rat assessed as protection against Sc-metrazol induced seizure at po administration; type: functional
Mus musculus [39] = assay: Anticonvulsant activity in mouse assessed as protection against Sc-metrazol induced seizure at po administration; type: functional
Rattus norvegicus [40] = assay: Anticonvulsant activity in Sprague-Dawley rat assessed as protection against maximal electroshock induced seizure at ip administration for 0.25 hrs; type: functional
[41] = Protective index, ratio of TD50 for toxicity in Sprague-Dawley rat assessed as median toxicity dose at ip administration by rotorod test to ED50 for anticonvulsant activity in Sprague-Dawley rat assessed as protection against maximal electroshock induced seizure at ip administration; type: organism-based; conditions: in vivo, read-out: Ratio TD50/ED50
Mus musculus [42] = assay: Anticonvulsant activity in Albino mouse assessed as protection against Sc-metrazol induced seizure at ip administration; type: functional
[43] = Protective index, ratio of TD50 for toxicity in Sprague-Dawley rat at po administration to ED50 for anticonvulsant activity in Sprague-Dawley rat assessed as protection against pilocarpine induced epilepticus at po administration; type: organism-based; conditions: in vivo, read-out: Ratio TD50/ED50
Rattus norvegicus [44] = assay: Anticonvulsant activity in Sprague-Dawley rat assessed as protection against pilocarpine induced epilepticus at po administration; type: functional
Mus musculus [45] = assay: Anticonvulsant activity in Albino mouse assessed as protection against 6-Hz psychomotor induced seizure at ip administration; type: functional
[46] = Neurotoxicity in Sprague-Dawley rat assessed as median toxic dose at ip administration; type: toxicity, organism-based; conditions: in vivo
Rattus norvegicus [47] = assay: Anticonvulsant activity in Sprague-Dawley rat assessed as protection against Sc-metrazol induced seizure at po administration; type: functional

Structure (SMILES): CCCC(CCC)c1nnc(Nc2ccccc2)s1
TD50 [1]: 419 mg/kg | ED50 (Mus musculus [2]): 187 mg/kg

Structure (SMILES): CCCC(CCC)C(=O)O [VALPROIC ACID]
ED50 (Mus musculus [3]): 131 mg/kg

Structure (SMILES): O=[N+]([O-])c1ccc(C2CC(c3ccc(Cl)cc3)=Nc3ccccc3N2)cc1 (stereo not drawn)
Activity (Rattus norvegicus [4]): 56% | Time (Rattus norvegicus [5]): 7.25 s

Structure (SMILES): CC(C)(C)NC(=O)C(c1cccc(Br)c1)N1Cc2cnnn2-c2cc(Cl)ccc2C1=O (stereo not drawn)
Activity (Mus musculus [6]): 56.94%

Structure (SMILES): CN(C)c1ccc(/C=N/Nc2nnc(-c3ccccc3)nc2Cc2ccc(Cl)cc2)cc1
selectivity ratio [7]: 7.82 | ED50 (Mus musculus [8]): 83.9 mg/kg | ED50 (Mus musculus [9]): 46 mg/kg | Activity (Mus musculus [10]): 37.3 mg | selectivity ratio [11]: 4.29

IC50 [17]: 113 µM
Structure (SMILES): CC(=O)O[C@H]1Cc2ccccc2N(C(N)=O)c2ccccc21 [ESLICARBAZEPINE ACETATE]
inhibition (Rattus norvegicus [12]): 95.6% | selectivity ratio [13]: 76.3 | Activity (Rattus norvegicus [14]): 100% | inhibition (Rattus norvegicus [15]): 73.4% | inhibition (Rattus norvegicus [16]): 52.6% | ED50 (Rattus norvegicus [18]): 4.7 mg/kg

Structure (SMILES): COC(=O)C1C(=O)C=C(Nc2cc(C)on2)CC1C (stereo not drawn)
TD50 at 4 h [19]: > 500 mg/kg | selectivity ratio at 4 h [20]: > 7.3

Structure (SMILES): CN1C(=O)CC(=O)N(C)c2cc(NCc3ccc(F)cc3)ccc21
inhibition in vivo at 50 mg/kg (Mus musculus [21]): 80% | inhibition in vivo at 50 mg/kg (Mus musculus [22]): 100% | inhibition in vivo at 50 mg/kg (Mus musculus [23]): 80% | ED50 (Mus musculus [24]): 68 mg/kg | TD50 [25]: 164 mg/kg | inhibition in vivo at 50 mg/kg (Mus musculus [26]): 100% | mortality at 0.5 h [27]: 70% | mortality at 0.5 h [28]: 20%

Structure (SMILES): CCCC(CCC)C(=O)Nc1ccccc1O
Time (Mus musculus [29]): 30.66 s | Activity [30]: 60% | ED50 (Mus musculus [31]): 348 mg/kg | ED50 (Mus musculus [32]): 370 mg/kg | Time (Mus musculus [33]): 93.26 s | Activity [34]: 2.78% | LD50 at 0.5 h [35]: 937 mg/kg | Time (Mus musculus [36]): 5.75 s

Structure (SMILES): O=C1Nc2ccc(Cl)cc2C(c2ccccc2)=NC1/N=N/c1ccc(Cl)cc1 (stereo not drawn)
Activity (Mus musculus [37]): 100%

Structure (SMILES): CONC(=O)C1C(C)(C)C1(C)C
ED50 (Rattus norvegicus [38]): 35 mg/kg | ED50 (Mus musculus [39]): 74 mg/kg

Structure (SMILES): CCCC(CCC)C(=O)NCCN(C)C
ED50 (Rattus norvegicus [40]): 38.6 mg/kg | selectivity ratio [41]: 1.8

Structure (SMILES): CCCC(CC)C(=O)NOC (stereo not drawn)
ED50 (Mus musculus [42]): 70 mg/kg | selectivity ratio [43]: > 5.5 | ED50 (Mus musculus [9]): 142 mg/kg | ED50 (Rattus norvegicus [44]): 200 mg/kg | ED50 (Mus musculus [45]): 50 mg/kg | TD50 [46]: 118 mg/kg | ED50 (Rattus norvegicus [47]): 36 mg/kg
